Assay results taken from article PMC11784839, “Monoaminergic neurotransmitters are bimodal effectors of tau aggregation” (Science Advances, 2025).
Entries after “also recorded” stand apart in the source; their conditions may differ. Like-named read-outs stand apart in the source and are kept apart here.

Assays:
tau [1] = biological target: T1, tau (Homo sapiens, UniProt P10636); test: Tau biosensor dose titrations (HEK293T tau biosensor cells seeded with AD brain homogenate);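 for all read-outs here: AD brain homogenate preincubated 16 h with compound, then transfected into tau biosensor cells, seeding read as tau puncta counted by imaging, normalized to cell confluence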; assay type: cell-based; conditions: for effect on seeding at 10 μM: 10 μM final concentration on cells; for effect on seeding at 10 μM / effect on seeding at 50 μM: AD brain homogenate seed; for effect on seeding, concentrations ranging from 10 to 100 μM: AD brain homogenate seed (Fig. 2A); for dose-dependent effect of NT on tau seeding: AD brain homogenate pretreated with indicated amounts of NT (Fig. 3A); for effect on seeding, extended dose series: NT concentrations tested from 25 nM to 100 µM (fig. S6); for effect on seeding at 50 μM: 50 μM final concentration on cells
tau [2] = biological target: T1, tau; test: MCE Phenols Library screening, tau biosensor cell seeding assay (AvZ); assay type: cell-based; conditions: for AvZ (average z score of seeding, SDs from the mean level of seeding): 10 μM phenol in cell cultures, AD brain homogenate preincubated 16 hours, two biological replicates, positive = catalyzes seeding, negative = inhibits; for Z repl 1 / Z Repl 2: Z score; for Z repl 1 / raw data 1: replicate 1; for Z Repl 2 / raw data 2: replicate 2
Target sequence in this assay (P10636 623-695 limits assumed): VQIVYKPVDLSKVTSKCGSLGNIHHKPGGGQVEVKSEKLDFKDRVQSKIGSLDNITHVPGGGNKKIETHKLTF

[3] = biological target: tau fibrils purified from AD brain (Homo sapiens, UniProt P10636); test: Quantitative electron microscopy (qEM) of fibril disaggregation; assay type: biochemical; conditions: 75 μM; for effect on tau fibril load (qEM): 24-hour treatment, vs no inhibitor control; for reduction of tau fibril counts: preincubated 24 hours, N = 96 images
Sequence of tau fibrils purified from AD brain (P10636 623-695 limits assumed): as above

[4] = biological target: T2, P301S 4R1N tau fused with YFP (Homo sapiens, UniProt P10636, P618S)
T2 sequence (P10636 1-412 isoform P10636-7 P272S): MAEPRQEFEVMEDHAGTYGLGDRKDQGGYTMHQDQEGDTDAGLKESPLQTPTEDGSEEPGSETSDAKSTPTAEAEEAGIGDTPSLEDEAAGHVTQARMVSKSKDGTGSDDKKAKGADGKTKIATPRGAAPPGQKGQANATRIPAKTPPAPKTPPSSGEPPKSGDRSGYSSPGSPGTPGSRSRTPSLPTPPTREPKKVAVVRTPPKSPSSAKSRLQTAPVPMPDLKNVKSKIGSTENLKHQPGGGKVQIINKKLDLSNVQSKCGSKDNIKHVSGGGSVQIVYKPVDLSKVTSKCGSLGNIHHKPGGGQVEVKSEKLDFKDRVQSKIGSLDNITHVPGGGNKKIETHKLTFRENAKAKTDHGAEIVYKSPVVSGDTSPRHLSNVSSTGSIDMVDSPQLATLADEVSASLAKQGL

VMAT2 = conditions: cited from earlier work
[5] = biological target: T2, P301S 4R1N tau fused with YFP; test: cell-based
[6] = tested on: intracellular DA concentrations; conditions: cited from earlier work
[7] = average puncta of the two replicates
[8] = AD brain homogenate diluted to […] ptau, read-out: IC50 low tau load
[9] = average Z score of the two replicates, tau seeding
[10] = average Z score of the two replicates, MCE Phenols Library screen
[11] = average Z score of two replicates, Phenols Library screen

| Compound | Z repl 1 (tau [2]) | Z Repl 2 (tau [2]) | av puncta (tau [2]; average of raw data 1 and 2) | raw data 1 (tau [2]; puncta) | raw data 2 (tau [2]; puncta) | other results |
| --- | --- | --- | --- | --- | --- | --- |
| NC(Cc1ccc(O)c(O)c1)C(=O)O (racemic) [DL-DOPA] | – | – | – | – | – | effect on seeding at 10 μM (tau [1]): seeding catalyst; also recorded: catalyzed; effect on seeding, concentrations ranging from 10 to 100 μM (tau [1]): dose-dependent inhibitor at higher concentrations; AvZ (average z score of seeding, SDs from the mean level of seeding) (tau [2]): 1.763; AvZ (average z score of seeding, SDs from the mean level of seeding) (tau [2]; listed as DL-dopa): 1.76 |
| NC(Cc1cccc(O)c1)C(=O)O (racemic) [DL-m-Tyrosine] | 1.84 | 1.982 | 41183.3 | 48433.9 | 33932.7 | effect on seeding, concentrations ranging from 10 to 100 μM (tau [1]): catalyzed seeding independently of dose at all concentrations tested; AvZ (average z score of seeding, SDs from the mean level of seeding) (tau [2]): 1.911 |
| O=C(O)Cc1c[nH]c2ccc(O)cc12 [5-Hydroxyindole-3-acetic acid] | -0.16 | -0.771 | – | 24430.2 | 4529.6 | dose-dependent effect of NT on tau seeding (tau [1]): inhibited tau seeding at levels comparable to EP; AvZ (average z score of seeding, SDs from the mean level of seeding) (tau [2]): -0.466; av puncta (tau [2]; [7]): 14479.9 |
| N[C@H](Cc1ccc(O)c(O)c1)C(=O)O [D-dopa] | – | – | – | – | – | IC50 (tau [1]; [8]): 1.9 µM |
| NCCc1ccc(O)c(O)c1 [DA, dopamine, reference compound] | – | – | – | – | – | effect on tau fibril load (qEM) [3]: significantly reduce AD tau fibrils; reduction of tau fibril counts [3]: about 50%; effect of lower doses on seeding in dopaminergic neurons ([4]; around 1 μM, high tau load): catalytic effect on seeding; effect on seeding in dopaminergic neurons at 50 μM ([4]; final concentration 50 μM on cells): inhibited seeding; effect on seeding at 10 μM (tau [1]): inhibited; IC50 (tau [1]; [8]): 3.6 µM; dose-dependent effect of NT on tau seeding (tau [1]): potently and dose-dependently inhibited tau seeding; IC50 (tau [1]; AD brain homogenate with ptau […], read-out: IC50 high tau load): 9.8 µM; affinity for VMAT2 relative to 5-HT (VMAT2): comparable or slightly lower affinity for VMAT2 than 5-HT; IC50 [5]: 16.6 µM |
| O=C(O)Cc1ccc(O)c(O)c1 [DOPAC, 3,4-dihydroxyphenylacetic acid] | – | – | – | – | – | dose-dependent effect of NT on tau seeding (tau [1]): inhibited seeding with effects similar to DA |
| CNC[C@H](O)c1ccc(O)c(O)c1 [EP, epinephrine, reference compound] | – | – | – | – | – | dose-dependent effect of NT on tau seeding (tau [1]): inhibited seeding with the next greatest efficacy |
| NCCCC(=O)O [GABA, γ-aminobutyric acid] | – | – | – | – | – | dose-dependent effect of NT on tau seeding (tau [1]): no significant inhibitory effects on tau seeding; effect on seeding, extended dose series (tau [1]): No inhibitory effect |
| CC(C)=CCc1c(O)cc2oc3cc(O)c(O)c(CCC(C)(C)O)c3c(=O)c2c1O [Garcinone C] | – | – | – | – | – | effect on seeding at 10 μM (tau [1]): catalyzed seeding; effect on seeding at 50 μM (tau [1]): inhibited seeding; AvZ (average z score of seeding, SDs from the mean level of seeding) (tau [2]): 3.115 |
| COc1cc(CC(=O)O)ccc1O [Homovanillic acid] | -0.336 | 0.228 | 18758.8 | 22315.8 | 15201.8 | effect on tau fibril load (qEM) ([3]; listed as HVA): significant reduction in fibrils, though to a lesser extent; AvZ (average z score of seeding, SDs from the mean level of seeding) (tau [2]): -0.054; AvZ (average z score of seeding, SDs from the mean level of seeding) (tau [2]; listed as HVA): −0.054 |
| N[C@@H](Cc1ccc(O)c(O)c1)C(=O)O [L-dopa] | – | – | – | – | – | effect on tau fibril load (qEM) [3]: significantly reduce AD tau fibrils; reduction of tau fibril counts [3]: ~75%; IC50 (tau [1]; [8]): 1.9 µM; increase of intracellular DA concentrations [6]: ~10 fold; intracellular DA concentration in neurons treated with levodopa [6]: up to 17 μM |
| NC[C@H](O)c1ccc(O)c(O)c1 [NE, norepinephrine, reference compound] | – | – | – | – | – | IC50 (tau [1]; AD brain homogenate diluted to 0.11 ng/μl ptau, read-out: IC50 low tau load): > 25 µM |
| CC(=O)OCC[N+](C)(C)C [acetylcholine] | – | – | – | – | – | dose-dependent effect of NT on tau seeding (tau [1]): no significant inhibitory effects on tau seeding; effect on seeding, extended dose series (tau [1]): No inhibitory effect |
| Nc1ncnc2c1ncn2[C@@H]1O[C@H](CO)[C@@H](O)[C@H]1O [adenosine, reference compound] | – | – | – | – | – | dose-dependent effect of NT on tau seeding (tau [1]): no significant inhibitory effects on tau seeding; also recorded: dose-dependently catalyzed tau seeding |
| COc1c(O)cc2oc3cc(O)c(CC=C(C)C)c(O)c3c(=O)c2c1CCC(C)(C)O [garcinone D] | – | – | – | – | – | effect on seeding at 10 μM (tau [1]): catalyzed seeding; effect on seeding at 50 μM (tau [1]): inhibited seeding; av Z (tau [2]; [9]): 0.598 |
| N[C@@H](CCC(=O)O)C(=O)O [glutamate] | – | – | – | – | – | dose-dependent effect of NT on tau seeding (tau [1]): no significant inhibitory effects on tau seeding; effect on seeding, extended dose series (tau [1]): No inhibitory effect |

| Compound | Z repl 1 (tau [2]) | Z Repl 2 (tau [2]) | av puncta (tau [2]; average of raw data 1 and 2) | raw data 1 (tau [2]; puncta) | raw data 2 (tau [2]; puncta) | other results |
| --- | --- | --- | --- | --- | --- | --- |
| COc1ccc(-c2cc(=O)c3c(O)cc(O)c(-c4cc(-c5cc(=O)c6c(O)cc(OC)cc6o5)ccc4OC)c3o2)cc1 [sciadopitysin] | 0.092 | 0.543 | 23005 | 27448.5 | 18561.5 | effect on seeding at 10 μM (tau [1]): catalyzed seeding; effect on seeding at 50 μM (tau [1]): inhibited seeding; av Z (tau [2]; [9]): 0.317 |
| NCCc1c[nH]c2ccc(O)cc12 [serotonin, 5-hydroxytryptamine] | – | – | – | – | – | dose-dependent effect of NT on tau seeding (tau [1]): no significant inhibitory effects on tau seeding; Kd (VMAT2; read-out: dissociation constant (Kd) for VMAT2): 3.3 µM |
| Echinacoside | 0.125 | -0.609 | – | – | – | av Z (tau [2]; [10]): -0.242; av puncta (tau [2]; [7]): 17056.9; raw data 1 (tau [2]; raw puncta): 27847.2; raw data 2 (tau [2]; raw puncta): 6266.63 |
| Engeletin | -1.222 | -0.399 | 10092.3 | 11684.3 | 8500.41 | av Z (tau [2]; [10]): -0.81 |
| Gigantol | -0.874 | -0.481 | – | 15857.3 | 7628.39 | av Z (tau [2]; [10]): -0.677 |
| Isoliquiritin apioside | 0.567 | -0.451 | 20550.8 | 33153.4 | 7948.29 | av Z (tau [2]; [11]): 0.058 |
| Liquiritin apioside | 0.133 | -0.022 | 20239.1 | 27949.8 | 12528.3 | av Z (tau [2]; [11]): 0.056 |
| Medicarpin | -0.987 | -0.112 | – | 14494.9 | 11569.9 | av Z (tau [2]; [10]): -0.55; av puncta (tau [2]; [7]): 13032.4 |
| Myricitrin | -0.619 | -1.178 | 9550.45 | 18913 | 187.899 | av Z (tau [2]; [10]): -0.899 |
| Neosmitilbin | 0.198 | -0.157 | 19907.5 | 28721.6 | 11093.4 | av Z (tau [2]; [11]): 0.021 |
| Punicalagin | -2.185 | -1.19 | 87.672 | 119.783 | 55.562 | av Z (tau [2]; [10]): -1.687 |
| Punicalin | -2.134 | -1.192 | 380.043 | 725.667 | 34.42 | av Z (tau [2]; [10]): -1.663 |
| Rhodiosin | -1.331 | -1.146 | 5448.02 | 10373.6 | 522.423 | av Z (tau [2]; [10]): -1.239 |
| Theaflavin 3,3'-digallate | – | – | 323.309 | 392.747 | 253.87 | – |
| Thymopentin [reference compound] | -1.145 | -0.22 | – | 12607.7 | 10414 | AvZ (average z score of seeding, SDs from the mean level of seeding) (tau [2]): -0.682; av puncta (tau [2]; [7]): 11510.9 |
| Tubuloside A | 0.218 | 0.274 | 22327.4 | 28967.6 | 15687.1 | – |
